This passage reports MIC results from ChEMBL document CHEMBL1123128, “(+/-)-2-Amino-3,4-dihydro-7-[2,3-dihydroxy-4-(hydroxymethyl)-1- cyclopentyl]-7H-pyrrolo[2,3-d]pyrimidin-4-ones: new carbocyclic analogues of 7-deazaguanosine with antiviral activity” (1985).

In brackets after ≈: the same amount, converted by molar mass.

For the assay, the system named is Human alphaherpesvirus 1. Nature of the assay: The minimal inhibitory concentration required to inhibit HSV-1 virus in MRC5 cells. It is filed as functional.

For the compound `Nc1nc(O)c2ccn([C@@H]3C[C@H](CO)[C@@H](O)[C@@H]3O)c2n1`, the MIC turned out to be 25 µg/mL (≈ 89.2 µM).
`Nc1nc(O)c2ccn([C@@H]3C[C@H](CO)[C@H](O)[C@@H]3O)c2n1` yielded an MIC of 100 µg/mL (≈ 357 µM).
